Results taken from patent US6538008B1, “Combination of a selective NMDA NR2B antagonist and an opioid analgesic” (Merck Sharpe & Dohme Limited, priority 1998, dated 2003).
Several values for one entry are separate records, joined by “and”; a condition that tells them apart may be missing. Equal entries are not always repeated.

Experiments:
[1] = system: mechanical allodynia induced by sciatic nerve ligation; assay: Sciatic nerve ligation assay of neuropathic pain (mechanical allodynia, modified Randall-Selitto algesiometer); assay type: in vivo, rat; conditions: for effect on mechanical allodynia induced by sciatic nerve ligation: in words, Example 5; for ID50 Antinociception Rat Ligation: reversal of mechanical allodynia 7 days after ligation, compound given 1 h before test, route given per compound
[2] = system: rotarod performance (motor co-ordination); assay: Motor co-ordination and behaviour, accelerating rotarod; conditions: for ID50 Motor Impairment Rat Rotarod: accelerating rotarod 1 h after drug, route given per compound
Experimental: (§1) Anti-algesic activity was assessed using an assay of neuropathic pain in rats (sciatic nerve ligation) and in a carrageenan-induced hyperalgesia assay. Motor impairment was measured using an accelerating rotarod.
(§2) For sciatic nerve ligation, male Sprague Dawley rats (180-220 g) were anaesthetised with isofluorane, the left sciatic nerve exposed and 4 chromic catgut (4.0) ligatures were tied loosely around the nerve (spaced 1-2 mm apart) immediately proximal to the point of trifurcation. In sham-operated animals, the same dissection was performed but without ligation. Responses to mechanical pressure were assessed 7 days after ligation using a modified Randall-Selitto algesiometer in which constant force of 40 mmHg was applied to the hind paw and the latency to struggle was recorded as the reaction time. Mechanical allodynia was defined as the difference in reaction time for sham and ligature rats. Reaction times for drug treated rats were expressed as a percentage of this response. Compounds were administered 1 h before the test. In the carrageenan-induced hyperalgesia assay, male Sprague Dawley rats (100-120 g) received an intraplantar injection of carrageenan (4.5 mg) and mechanical thresholds were determined 3 h later using a modified Ugo Basile Algesiometer. Control rats received saline (0.15 ml i.pl.). Hyperalgesia was defined as the difference in vocalisation threshold for saline- and carrageenan-injected rats. Paw pressure scores for drug-treated rats were expressed as a percentage of this response. Compounds were administered 2 h after carrageenan. To determine the effects of the compounds on motor co-ordination, male Sprague Dawley rats (160-180 g) were first trained to remain for 120 s on the rotarod apparatus revolving at 12 r.p.m. on the morning before the test. […] Lamotrigine, gabapentin and (±)-CP-101,606 were suspended in 0.5% methocel and administered orally (1 ml/kg). Ifenprodil, L-701.324, L-687,414 and (±)-Ro25-6981 were dissolved or suspended in 0.5% methocel and administered intraperitoneally (1 ml/kg). MK-801 was dissolved in distilled water and given i.p. (1 ml/kg). Doses of compounds refer to the free base.
(§3) Male Sprague Dawley rats (100-120 g) received an intraplantar injection of carrageenan (4.5 mg) and mechanical thresholds were determined 3 h later using a modified Ugo Basile Algesiometer. Control rats received saline (0.15 ml i.pl.). Hyperalgesia was defined as the difference in vocalisation threshold for saline- and carrageenan-injected rats. Paw pressure scores for drug-treated rats were expressed as a percentage of this response. Compounds were administered 2 h after carrageenan. To determine the effects of morphine and (±)-Ro25-6981 on motor co-ordination, male Sprague Dawley rats (160-180 g) were first trained to remain for 120 s on the rotarod apparatus revolving at 12 r.p.m. on the morning before the test.
(§4) (±)-Ro25-6981 was suspended in 0.5% methocel and administered intraperitoneally (1 ml/kg). Morphine HCl was dissolved in saline and given subcutaneously (1 ml/kg). Doses of compounds refer to the free base.

[3] = system: mechanical hyperalgesia induced by carrageenan; assay: Carrageenan-induced mechanical hyperalgesia assay (modified Ugo Basile Algesiometer); assay type: in vivo, rat; conditions: for ID50 Antinociception Rat Carrageenan: inhibition of mechanical hyperalgesia 3 h after carrageenan 4.5 mg i.pl., compound given 2 h after carrageenan, route given per compound
Experimental: as §1, §2, §3, §4

[4] = system: rat hyperalgesic and nociceptive tests; conditions: at doses showing no behavioural abnormality; cited from earlier work

Compound	effect on mechanical allodynia induced by sciatic nerve ligation [1]	ID50 Antinociception Rat Ligation [1]	ID50 Motor Impairment Rat Rotarod [2]	ID50 Antinociception Rat Carrageenan [3]	also measured
C[C@@H]1CN(O)C(=O)[C@@H]1N [L-687,414]	dose-dependently reversed mechanical allodynia	9.8 mg/kg	53.3 mg/kg and 53 mg/kg	50 mg/kg	behavioural effects observed ([2]; 100 and 300 mg/kg i.p.): body rolling and ataxia
NCC1(CC(=O)O)CCCCC1 [Gabapentin, gabapentin]	reversed mechanical allodynia	87 mg/kg	133 mg/kg	50 mg/kg	behavioural effects observed ([2]; doses of 30-300 mg/kg): motor impairments (ataxia)
O=c1[nH]c2cc(Cl)ccc2c(O)c1-c1cccc(Oc2ccccc2)c1 [L-701,324]	dose-dependently reversed mechanical allodynia	2.6 mg/kg	1.9 mg/kg	2.5 mg/kg	behavioural effects observed ([2]; 10 and 30 mg/kg i.p.): ataxia was evident
CC(C(O)c1ccc(O)cc1)N1CCC(Cc2ccccc2)CC1 (centres unmarked) [Ifenprodil, ifenprodil]	reversed mechanical allodynia	9.5 mg/kg	≧50 mg/kg	17 mg/kg	adverse effects observed (ptosis, piloerection, hypoactivity, hyperventilation) ([2]; 50 mg/kg): severe adverse effects; impairment in rotarod performance ([2]; 50 mg/kg): approximately 50%
Nc1nnc(-c2cccc(Cl)c2Cl)c(N)n1 [Lamotrigine, lamotrigine]	reversed mechanical allodynia	11 mg/kg	>500 mg/kg	207 mg/kg	inhibition in the time spent on the rotarod ([2]; 500 mg/kg p.o.): 40%; other effects observed besides rotarod inhibition ([2]; 500 mg/kg p.o.): no other effects were observed
C[C@@H](CN1CCC(Cc2ccccc2)CC1)[C@@H](O)c1ccc(O)cc1 (racemic) [(±)-Ro25-6981]	dose-dependently reversed mechanical allodynia	3.8 mg/kg	≧100 mg/kg	5.7 mg/kg	effect on rotarod performance ([2]; 1 mg/kg i.p. alone (FIG. 3)): no effect; inhibition of rotarod performance ([2]; 100 mg/kg i.p.): 47%; antinociception in carrageenan-induced hyperalgesia ([3]; 1 mg/kg i.p., alone): did not cause significant antinociception; effect on mechanical hyperalgesia induced by carrageenan ([3]; 10 and 30 mg/kg i.p., alone (FIG. 1)): dose-dependent reversal of mechanical hyperalgesia
C[C@@H]([C@@H](O)c1ccc(O)cc1)N1CCC(O)(c2ccccc2)CC1 [CP-101,606]					analgesic activity [4]: Potent analgesic activity
C[C@]12N[C@H](Cc3ccccc31)c1ccccc12 [MK-801]	dose-dependently reversed mechanical allodynia	0.19 mg/kg	0.22 mg/kg	0.21 mg/kg	behavioural effects observed ([2]; 0.3 and 1 mg/kg doses): Body rolling. and head weaving
CN1CC[C@]23c4c5ccc(O)c4O[C@H]2[C@@H](O)C=C[C@H]3[C@H]1C5 [morphine]					effect on rotarod performance ([2]; 3 mg/kg s.c. alone (FIG. 3)): significant impairment; effect on rotarod performance ([2]; 0.3 and 1 mg/kg s.c. alone (FIG. 3)): no effect; effect on mechanical hyperalgesia induced by carrageenan ([3]; 1 mg/kg s.c., alone (FIG. 2)): completely reversed mechanical hyperalgesia; effect on mechanical hyperalgesia induced by carrageenan ([3]; 0.1 and 0.3 mg/kg s.c., alone (FIG. 2)): without effect; percent inhibition of hyperalgesia ([3]; morphine 0.1 mg/kg s.c. alone): 11%; percent inhibition of hyperalgesia ([3]; morphine 0.3 mg/kg s.c. alone): 31%
(±)-CP-101,606	dose-dependently reversed mechanical allodynia	6.1 mg/kg	>300 mg/kg	37 mg/kg	rotarod latency compared to vehicle-treated rats ([2]; 300 mg/kg dose): significant increase in latency; effect on motor performance on the rotarod ([2]; up to 300 mg/kg p.o.): did not inhibit motor performance
